Experimental data reported in patent publication US20260325533A1, “CDK INHIBITOR COMPOUNDS” (ALEKSIA THERAPEUTICS, INC., priority 2023, published 2026).
Like-named read-outs stand apart in the source and are kept apart here.

Legend:
Assay type in all cases: biochemical
[1] = biological target: CDK6/CCND1 (Homo sapiens, UniProt Q00534); experiment: CDK6 homogeneous time-resolved fluorescence (HTRF) kinase assay; conditions: CDK6/CCND
How it was run: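 Enzyme pre-incubated 20 min at 23 °C with compound, then reacted 60 min at 23 °C with 1 mM ATP and 50 nM ULight-4E-BP1 (Thr37/46) peptide; 1 nM enzyme, 1% DMSO. EDTA-stopped, Eu-anti-phospho antibody TR-FRET read (665 nm or 665/615 ratio); 11-point half-log titration from 10 μM gave IC50.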

[2] = biological target: CDK2/CCNE1 (Homo sapiens, UniProt P24941); experiment: CDK2 homogeneous time-resolved fluorescence (HTRF) kinase assay; conditions: CDK2/CCNE
How it was run: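 3 nM CDK2/CCNE1 was preincubated with compound for 20 min at 23 °C in HEPES buffer (pH not stated), then reacted 60 min with 1 mM ATP and 50 nM ULight-4E-BP1 (Thr37/46) peptide. After EDTA stop, Eu-anti-phospho-4E-BP1 antibody (2 nM) was added for 60 min and TR-FRET read at 665 nm.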

[3] = biological target: CDK4/CCND3 (Homo sapiens, UniProt P11802); experiment: CDK4 homogeneous time-resolved fluorescence (HTRF) kinase assay; conditions: CDK4/CCND
How it was run: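 Steps: compound plus 1.5 nM CDK4/CCND3, 20 min, 23 °C; add 1 mM ATP and 50 nM ULight-4E-BP1 (Thr37/46) peptide, 60 min; stop with 10 mM EDTA; add 2 nM Eu anti-phospho antibody, 60 min; read 665 nm. IC50 from 11-point half-log series starting 10 μM.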

[4] = biological target: CDK1/CCNB1 (Homo sapiens, UniProt P06493); experiment: CDK1 homogeneous time-resolved fluorescence (HTRF) kinase assay; conditions: CDK1/CCNB
How it was run: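 CDK1/CCNB1 0.5 nM + cpd, 20 min 23 °C; add 1 mM ATP, 50 nM ULight-4E-BP1 peptide, 60 min 23 °C; stop 10 mM EDTA; 2 nM Eu-Ab, 60 min; HTRF 665 nm. 11-pt half-log, top 10 μM typical; IC50.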

[5] = x = IC50 >250 nM, read-out: CDK6/CCND IC50 (>250 nM column)
[6] = x = IC50 <25 nM, read-out: CDK2/CCNE IC50 (<25 nM)
[7] = x = IC50 25-250 nM, read-out: CDK4/CCND IC50 (25-250 nM)
[8] = x = IC50 25-250 nM, read-out: CDK1/CCNB IC50 (25-250 nM)
[9] = >250 nM, 1 mM ATP, read-out: CDK6/CCND IC50, >250 nM
[10] = >250 nM, read-out: CDK4/CCND IC50, >250 nM
[11] = >250 nM, read-out: CDK1/CCNB IC50 >250 nM
[12] = x = IC50 25-250 nM, read-out: CDK2/CCNE IC50 (25-250 nM)
[13] = x = IC50 >250 nM, read-out: CDK4/CCND IC50 (>250 nM column)
[14] = x = IC50 >250 nM, read-out: CDK1/CCNB IC50 (>250 nM column)
[15] = >250 nM marked x, read-out: CDK6/CCND IC50 >250 nM
[16] = 25-250 nM marked x, read-out: CDK2/CCNE IC50 25-250 nM
[17] = >250 nM marked x, read-out: CDK4/CCND IC50 >250 nM
[18] = >250 nM marked x, read-out: CDK1/CCNB IC50 >250 nM
[19] = <25 nM, read-out: CDK2/CCNE IC50, <25 nM
[20] = 25-250 nM, 1 mM ATP, read-out: CDK6/CCND IC50, 25-250 nM
[21] = 25-250 nM, read-out: CDK4/CCND IC50, 25-250 nM
[22] = x = IC50 >250 nM, read-out: CDK2/CCNE IC50 (>250 nM column)

Sequence of CDK4/CCND3 (P11802 whole entry): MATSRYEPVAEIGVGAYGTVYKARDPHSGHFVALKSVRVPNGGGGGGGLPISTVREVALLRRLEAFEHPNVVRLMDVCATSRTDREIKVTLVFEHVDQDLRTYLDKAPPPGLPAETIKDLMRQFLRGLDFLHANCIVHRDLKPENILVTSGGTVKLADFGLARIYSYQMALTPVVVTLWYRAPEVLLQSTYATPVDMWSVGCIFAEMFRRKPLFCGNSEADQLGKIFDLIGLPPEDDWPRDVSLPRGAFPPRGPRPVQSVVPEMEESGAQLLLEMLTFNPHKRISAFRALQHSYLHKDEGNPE
Sequence of CDK4/CCND3 (P30281 whole entry partner): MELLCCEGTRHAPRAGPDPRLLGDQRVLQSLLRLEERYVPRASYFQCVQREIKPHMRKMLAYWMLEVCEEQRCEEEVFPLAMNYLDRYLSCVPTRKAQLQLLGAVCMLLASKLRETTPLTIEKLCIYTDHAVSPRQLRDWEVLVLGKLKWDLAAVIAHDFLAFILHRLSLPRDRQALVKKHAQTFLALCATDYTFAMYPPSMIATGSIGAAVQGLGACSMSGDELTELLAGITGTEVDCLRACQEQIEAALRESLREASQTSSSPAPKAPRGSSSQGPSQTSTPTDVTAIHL
Sequence of CDK1/CCNB1 (P06493 whole entry): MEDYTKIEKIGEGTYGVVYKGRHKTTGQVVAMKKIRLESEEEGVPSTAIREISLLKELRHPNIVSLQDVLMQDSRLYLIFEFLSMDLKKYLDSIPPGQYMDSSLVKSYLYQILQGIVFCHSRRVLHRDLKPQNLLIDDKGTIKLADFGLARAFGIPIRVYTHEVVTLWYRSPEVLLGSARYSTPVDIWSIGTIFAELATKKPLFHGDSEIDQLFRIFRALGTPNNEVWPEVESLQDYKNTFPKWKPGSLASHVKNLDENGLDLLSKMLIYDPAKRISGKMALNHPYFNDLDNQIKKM
Sequence of CDK1/CCNB1 (P14635 whole entry partner): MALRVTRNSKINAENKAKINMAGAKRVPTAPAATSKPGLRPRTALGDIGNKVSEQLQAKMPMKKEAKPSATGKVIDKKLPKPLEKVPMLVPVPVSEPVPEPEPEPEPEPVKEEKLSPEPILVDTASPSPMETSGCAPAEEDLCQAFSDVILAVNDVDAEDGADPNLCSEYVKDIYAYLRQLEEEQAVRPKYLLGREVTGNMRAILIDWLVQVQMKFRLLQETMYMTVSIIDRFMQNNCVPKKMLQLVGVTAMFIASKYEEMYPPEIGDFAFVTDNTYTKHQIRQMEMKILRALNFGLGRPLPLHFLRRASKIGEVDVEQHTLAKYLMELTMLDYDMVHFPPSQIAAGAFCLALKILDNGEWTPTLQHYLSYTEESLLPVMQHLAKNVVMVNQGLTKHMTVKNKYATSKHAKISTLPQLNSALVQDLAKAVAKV
Sequence of CDK6/CCND1 (Q00534 whole entry): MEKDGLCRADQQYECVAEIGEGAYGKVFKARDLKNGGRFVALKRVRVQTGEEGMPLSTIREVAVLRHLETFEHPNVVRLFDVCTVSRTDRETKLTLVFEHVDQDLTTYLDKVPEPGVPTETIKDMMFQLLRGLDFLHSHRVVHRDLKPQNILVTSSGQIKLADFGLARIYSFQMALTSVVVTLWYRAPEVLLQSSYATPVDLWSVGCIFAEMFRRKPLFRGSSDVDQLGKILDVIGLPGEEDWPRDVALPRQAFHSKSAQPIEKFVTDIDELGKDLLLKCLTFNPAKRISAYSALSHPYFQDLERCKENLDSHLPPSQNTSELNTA
Sequence of CDK6/CCND1 (P24385 whole entry partner): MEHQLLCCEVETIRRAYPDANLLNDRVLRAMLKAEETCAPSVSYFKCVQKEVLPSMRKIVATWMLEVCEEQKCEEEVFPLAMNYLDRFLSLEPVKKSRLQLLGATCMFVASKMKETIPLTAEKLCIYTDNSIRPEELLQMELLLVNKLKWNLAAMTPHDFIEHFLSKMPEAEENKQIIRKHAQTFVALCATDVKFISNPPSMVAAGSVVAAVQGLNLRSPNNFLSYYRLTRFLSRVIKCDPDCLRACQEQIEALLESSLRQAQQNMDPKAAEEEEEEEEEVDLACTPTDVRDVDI

CS(=N)(=O)c1ccc(Nc2cc3c(C#Cc4ccc5c(c4)NC(=O)C54CCC4)nccc3cn2)cc1 (single isomer, unassigned) [Ex 368, 6'-((7-((4-(S-methylsulfonimidoyl)phenyl)amino)-2,6-naphthyridin-1-yl)ethynyl)spiro[cyclobutane-1,3'-indolin]-2'-one]
IC50 [1, 5]: > 250 nM | IC50 [2, 6]: < 25 nM | IC50 [3, 7]: 25 to 250 nM | IC50 [4, 8]: 25 to 250 nM

CS(=O)(=O)c1ccc(Nc2cc3c(C#Cc4cc(F)c5cn[nH]c5c4)nccc3cn2)cc1 [Ex 860, 5-((4-fluoro-1H-indazol-6-yl)ethynyl)-N-(4-(methylsulfonyl)phenyl)-2,6-naphthyridin-3-amine]
IC50 [1, 9]: > 250 nM | IC50 ([2]; >250 nM, read-out: CDK2/CCNE IC50, >250 nM): > 250 nM | IC50 [3, 10]: > 250 nM | IC50 [4, 11]: > 250 nM

Cc1ccc(C#Cc2nccc3cnc(Nc4ccc(S(C)(=O)=O)cc4)cc23)c(C#N)n1 [Ex 553, 6-methyl-3-((7-((4-(methylsulfonyl)phenyl)amino)-2,6-naphthyridin-1-yl)ethynyl)picolinonitrile]
IC50 ([1]; x = IC50 <25 nM, read-out: CDK6/CCND IC50 (<25 nM)): < 25 nM | IC50 [2, 12]: 25 to 250 nM | IC50 [3, 13]: > 250 nM | IC50 [4, 14]: > 250 nM

CCC1(CC)C(=O)Nc2cc(C#Cc3nccc4cnc(Nc5ccc(S(C)(=N)=O)cc5C(F)F)cc34)ccc21 (single isomer, unassigned) [Ex 294, 6-((7-((2-(difluoromethyl)-4-(S-methylsulfonimidoyl)phenyl)amino)-2,6-naphthyridin-1-yl)ethynyl)-3,3-diethylindolin-2-one]
IC50 [1, 15]: > 250 nM | IC50 [2, 16]: 25 to 250 nM | IC50 [3, 17]: > 250 nM | IC50 [4, 18]: > 250 nM

COc1cc(S(=N)(=O)C(C)C)ccc1Nc1cc2c(C#Cc3ccc4c(c3)NC(=O)C43CCC3)nccc2cn1 (single isomer, unassigned) [Ex 345, 6'-((7-((2-methoxy-4-(propan-2-ylsulfonimidoyl)phenyl)amino)-2,6-naphthyridin-1-yl)ethynyl)spiro[cyclobutane-1,3'-indolin]-2'-one]
IC50 [1, 5]: > 250 nM | IC50 [2, 6]: < 25 nM | IC50 [3, 13]: > 250 nM | IC50 [4, 14]: > 250 nM

CC1(C)C(=O)Nc2cc(C#Cc3nccc4cnc(Nc5ccc(S(C)(=O)=O)cc5Cl)cc34)ccc21 [Ex 423, 6-((7-((2-chloro-4-(methylsulfonyl)phenyl)amino)-2,6-naphthyridin-1-yl)ethynyl)-3,3-dimethylindolin-2-one]
IC50 [1, 5]: > 250 nM | IC50 [2, 6]: < 25 nM | IC50 [3, 13]: > 250 nM | IC50 [4, 14]: > 250 nM

COc1cnc(NS(=O)(=O)c2ccc(Nc3cc4c(-c5ccc6c(cnn6CC(C)(C)O)c5C)nccc4cn3)cc2)nc1 [Ex 906, 4-((5-(1-(2-hydroxy-2-methylpropyl)-4-methyl-1H-indazol-5-yl)-2,6-naphthyridin-3-yl)amino)-N-(5-methoxypyrimidin-2-yl)benzenesulfonamide]
IC50 [1, 9]: > 250 nM | IC50 [2, 19]: < 25 nM | IC50 [3, 10]: > 250 nM | IC50 [4, 11]: > 250 nM

CC(C)(C#Cc1nccc2cnc(Nc3ccc(S(C)(=O)=O)cc3)cc12)CO [Ex 504, 2,2-dimethyl-4-(7-((4-(methylsulfonyl)phenyl)amino)-2,6-naphthyridin-1-yl)but-3-yn-1-ol]
IC50 ([1]; x = IC50 25-250 nM, read-out: CDK6/CCND IC50 (25-250 nM)): 25 to 250 nM | IC50 [2, 6]: < 25 nM | IC50 [3, 7]: 25 to 250 nM | IC50 [4, 8]: 25 to 250 nM

Cc1c(-c2nccc3cnc(Nc4ccc(NS(=O)(=O)c5cnccn5)cc4)cc23)ccc2c1cnn2CC(C)(C)O [Ex 781, N-(4-((5-(1-(2-hydroxy-2-methylpropyl)-4-methyl-1H-indazol-5-yl)-2,6-naphthyridin-3-yl)amino)phenyl)pyrazine-2-sulfonamide]
IC50 [1, 20]: 25 to 250 nM | IC50 [2, 19]: < 25 nM | IC50 [3, 21]: 25 to 250 nM | IC50 [4, 11]: > 250 nM

CS(=O)(=O)N1CCC(Nc2cc3c(OCc4ccccc4)nccc3cn2)CC1 [Example 11, 5-(benzyloxy)-N-(1-(methylsulfonyl)piperidin-4-yl)-2,6-naphthyridin-3-amine]
IC50 ([1]; <25 nM, read-out: CDK6/CCND IC50 <25 nM): < 25 nM | IC50 [2, 16]: 25 to 250 nM | IC50 ([3]; <25 nM, read-out: CDK4/CCND IC50 <25 nM): < 25 nM | IC50 ([4]; 25-250 nM marked x, read-out: CDK1/CCNB IC50 25-250 nM): 25 to 250 nM

CC(C)(O)Cn1cc2ccc(C#Cc3nccc4cnc(Nc5ccc(S(C)(=O)=O)cc5)cc34)cc2n1 (single isomer, unassigned) [Example 577, 2-Methyl-1-(6-((7-((4-(methylsulfonyl)phenyl)amino)-2,6-naphthyridin-1-yl)ethynyl)-2H-indazol-2-yl)propan-2-ol]
IC50 [1, 5]: > 250 nM | IC50 [2, 22]: > 250 nM | IC50 [3, 13]: > 250 nM | IC50 [4, 14]: > 250 nM

COc1cnc(C#Cc2nccc3cnc(Nc4ccc(S(C)(=O)=O)cc4)cc23)nc1 [Example 513, 5-((5-methoxypyrimidin-2-yl)ethynyl)-N-(4-(methylsulfonyl)phenyl)-2,6-naphthyridin-3-amine]
IC50 [1, 5]: > 250 nM | IC50 [2, 22]: > 250 nM | IC50 [3, 13]: > 250 nM | IC50 [4, 14]: > 250 nM

Cc1cc(C)nc(NS(=O)(=O)c2ccc(Nc3cc4c(-c5ccc6c(cnn6CC(O)(C(F)(F)F)C(F)(F)F)c5C)nccc4cn3)cc2)n1 [Ex 736, N-(4,6-dimethylpyrimidin-2-yl)-4-((5-(4-methyl-1-(3,3,3-trifluoro-2-hydroxy-2-(trifluoromethyl)propyl)-1H-indazol-5-yl)-2,6-naphthyridin-3-yl)amino)benzenesulfonamide]
IC50 [1, 9]: > 250 nM | IC50 [2, 19]: < 25 nM | IC50 [3, 10]: > 250 nM | IC50 [4, 11]: > 250 nM

CC1(C)C(=O)Nc2cc(C#Cc3nccc4cnc(Nc5ccc([S@@](=N)(=O)NC6CCC6)cc5)cc34)ccc21 [Example 687, (S)-N-cyclobutyl-4-((5-((3,3-dimethyl-2-oxoindolin-6-yl)ethynyl)-2,6-naphthyridin-3-yl)amino)benzenesulfonimidamide]
IC50 [1, 20]: 25 to 250 nM | IC50 [2, 19]: < 25 nM | IC50 [3, 21]: 25 to 250 nM | IC50 ([4]; 25-250 nM, read-out: CDK1/CCNB IC50, 25-250 nM): 25 to 250 nM

CS(=O)(=O)c1ccc(Nc2cc3c(C#Cc4ccc(C#N)cc4)nccc3cn2)cc1 [Ex 129, 4-((7-((4-(methylsulfonyl)phenyl)amino)-2,6-naphthyridin-1-yl)ethynyl)benzonitrile]
IC50 [1, 15]: > 250 nM | IC50 [2, 16]: 25 to 250 nM | IC50 [3, 17]: > 250 nM | IC50 [4, 18]: > 250 nM

N#Cc1ccc(C#Cc2nccc3cnc(Nc4ccc(S(=O)(=O)Nc5ccccn5)cc4)cc23)cc1 [Ex 935, 4-((5-((4-cyanophenyl)ethynyl)-2,6-naphthyridin-3-yl)amino)-N-(pyridin-2-yl)benzenesulfonamide]
IC50 [1, 9]: > 250 nM | IC50 ([2]; 25-250 nM, read-out: CDK2/CCNE IC50, 25-250 nM): 25 to 250 nM | IC50 [3, 10]: > 250 nM | IC50 [4, 11]: > 250 nM

CS(=O)(=O)c1ccc(Nc2cc3c(C#Cc4cnc5[nH]c(=O)oc5c4)nccc3cn2)cc1 [Ex 501, 6-((7-((4-(methylsulfonyl)phenyl)amino)-2,6-naphthyridin-1-yl)ethynyl)oxazolo[4,5-b]pyridin-2(3H)-one]
IC50 [1, 5]: > 250 nM | IC50 [2, 12]: 25 to 250 nM | IC50 [3, 13]: > 250 nM | IC50 [4, 14]: > 250 nM
